For one compound, Km results are on record in article PMC5216903 (Febs Letters, 2016).

Common to all, as to assay: two-electrode voltage clamp of Xenopus oocytes, steady-state current
What all share (conditions): ND96 buffer pH 7.6, -60 mV; Fe(III) complex of DMA
For orientation: Two-electrode voltage clamp is typically applied to oocytes expressing channels or transporters.

For one assay, the system named is Zm-Hv-Zm. Format: cell-based, Zea mays; Hordeum vulgare.
For the next assay, the target named is T1, ZmYS1 (Zea mays, UniProt Q9AY27).
T1 sequence (Q9AY27 1-682): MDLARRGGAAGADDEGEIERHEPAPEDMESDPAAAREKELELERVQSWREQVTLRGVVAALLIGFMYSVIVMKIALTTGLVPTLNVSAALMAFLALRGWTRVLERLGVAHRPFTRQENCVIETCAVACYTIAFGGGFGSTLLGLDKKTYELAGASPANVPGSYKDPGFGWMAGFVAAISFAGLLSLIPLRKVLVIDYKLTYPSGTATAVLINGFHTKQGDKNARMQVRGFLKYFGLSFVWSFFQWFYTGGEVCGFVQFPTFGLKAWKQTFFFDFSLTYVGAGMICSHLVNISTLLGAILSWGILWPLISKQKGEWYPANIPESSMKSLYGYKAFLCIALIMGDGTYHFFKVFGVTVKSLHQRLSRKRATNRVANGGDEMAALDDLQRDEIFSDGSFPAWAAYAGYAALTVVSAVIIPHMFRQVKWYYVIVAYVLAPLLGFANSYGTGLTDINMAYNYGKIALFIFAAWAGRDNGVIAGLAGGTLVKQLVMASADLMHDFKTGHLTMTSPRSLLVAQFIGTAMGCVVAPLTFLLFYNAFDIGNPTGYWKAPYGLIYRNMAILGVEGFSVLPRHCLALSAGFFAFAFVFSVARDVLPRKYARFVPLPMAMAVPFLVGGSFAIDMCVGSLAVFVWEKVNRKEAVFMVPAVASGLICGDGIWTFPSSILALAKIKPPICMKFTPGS
Format: cell-based.

The subject of another assay is Hv-Zm-Hv. Format: cell-based, Hordeum vulgare; Zea mays.
In another assay the target is HvYS1 (Hordeum vulgare, UniProt Q2PGC4). The assay is classed as cell-based.
HvYS1, sequence (Q2PGC4 1-678): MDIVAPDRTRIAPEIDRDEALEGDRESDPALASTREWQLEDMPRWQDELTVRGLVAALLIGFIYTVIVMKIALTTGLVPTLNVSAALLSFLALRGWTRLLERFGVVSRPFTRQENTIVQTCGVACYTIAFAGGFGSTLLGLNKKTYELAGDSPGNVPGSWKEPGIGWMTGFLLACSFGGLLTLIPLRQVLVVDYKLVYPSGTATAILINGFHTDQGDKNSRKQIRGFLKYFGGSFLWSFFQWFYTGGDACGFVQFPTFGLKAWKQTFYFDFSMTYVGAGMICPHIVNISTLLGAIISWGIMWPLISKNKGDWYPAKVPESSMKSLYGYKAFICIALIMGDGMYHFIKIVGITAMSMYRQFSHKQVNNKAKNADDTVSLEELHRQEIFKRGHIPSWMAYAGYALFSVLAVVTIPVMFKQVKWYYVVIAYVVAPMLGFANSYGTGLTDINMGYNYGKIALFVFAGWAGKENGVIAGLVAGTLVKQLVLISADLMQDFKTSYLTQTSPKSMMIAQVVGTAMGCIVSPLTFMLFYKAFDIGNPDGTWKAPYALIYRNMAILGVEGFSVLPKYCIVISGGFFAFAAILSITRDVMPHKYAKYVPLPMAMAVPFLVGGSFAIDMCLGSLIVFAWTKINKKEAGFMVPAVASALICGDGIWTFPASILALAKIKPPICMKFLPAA

Take `O=C([O-])[C@H](CCN1CC[C@H]1C(=O)[O-])NCC[C@H](O)C(=O)[O-].[Fe+3]` [Fe(III)-DMA]: the Km (in general, the substrate concentration at which the rate is half of its maximum) stood at 44.2 µM with Zm-Hv-Zm, 65.3 µM at ZmYS1, 60.8 µM in the assay on Hv-Zm-Hv and 71.8 µM on HvYS1.
